Reference: the supplement of paper PMC10307832

How the values were obtained:
Assay in all cases: relative viability (nuclei count vs DMSO), 5 days (fraction); higher = more cells survive
R406 + Alpelisib = compound: COc1cc(Nc2ncc(F)c(Nc3ccc4c(n3)NC(=O)C(C)(C)O4)n2)cc(OC)c1OC [R406] + Cc1nc(NC(=O)N2CCC[C@H]2C(N)=O)sc1-c1ccnc(C(C)(C)C(F)(F)F)c1 [Alpelisib] (partner 2 µM)
Outline: (§1)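 Values are medians from duplicate plates. Each reflects relative viability, defined as the nuclei count of treated wells over that of vehicle wells. Lung cancer cell lines in 1536-well plates were pin-tool dosed one day after seeding with one drug alone or with a fixed anchor-drug dose plus five library-drug doses (not always all listed) in √10 steps, then fixed, stained and imaged at 4× after 5 days.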

Daporinad + Palbociclib = compound: O=C(/C=C/c1cccnc1)NCCCCC1CCN(C(=O)c2ccccc2)CC1 [Daporinad] + CC(=O)c1c(C)c2cnc(Nc3ccc(N4CCNCC4)cn3)nc2n(C2CCCC2)c1=O [Palbociclib] (partner 0.5 µM)
Outline: as §1

Daporinad + AZD7762 = compound: O=C(/C=C/c1cccnc1)NCCCCC1CCN(C(=O)c2ccccc2)CC1 [Daporinad] + NC(=O)Nc1cc(-c2cccc(F)c2)sc1C(=O)N[C@H]1CCCNC1 [AZD7762] (partner 0.2 µM)
Outline: as §1

Daporinad + Bortezomib = compound: O=C(/C=C/c1cccnc1)NCCCCC1CCN(C(=O)c2ccccc2)CC1 [Daporinad] + CC(C)C[C@H](NC(=O)[C@H](Cc1ccccc1)NC(=O)c1cnccn1)B(O)O [Bortezomib] (partner 0.002 µM)
Outline: as §1

Cell Line: ABC-1
- relative viability (R406 + Alpelisib; first compound 0.08 µM): 1.3
- relative viability (R406 + Alpelisib; first compound 0.253 µM): 0.963
- relative viability (R406 + Alpelisib; first compound 0.8 µM): 1.29
- relative viability (R406 + Alpelisib; first compound 2.53 µM): 0.821
- relative viability (R406 + Alpelisib; first compound 8 µM): 0.518
- relative viability (Daporinad + Palbociclib; first compound 0.0005 µM): 0.87
- relative viability (Daporinad + Palbociclib; first compound 0.001581 µM): 0.558
- relative viability (Daporinad + Palbociclib; first compound 0.005 µM): 0.793
- relative viability (Daporinad + Palbociclib; first compound 0.01581 µM): 0.904
- relative viability (Daporinad + AZD7762; first compound 0.0005 µM): 0.83
- relative viability (Daporinad + AZD7762; first compound 0.001581 µM): 0.798
- relative viability (Daporinad + AZD7762; first compound 0.005 µM): 0.823
- relative viability (Daporinad + AZD7762; first compound 0.01581 µM): 1.1
- relative viability (Daporinad + Bortezomib; first compound 0.0005 µM): 0.265
- relative viability (Daporinad + Bortezomib; first compound 0.001581 µM): 0.32
- relative viability (Daporinad + Bortezomib; first compound 0.005 µM): 0.312
- relative viability (Daporinad + Bortezomib; first compound 0.01581 µM): 0.309

Cell Line: NCI-H1793
- relative viability (R406 + Alpelisib; first compound 0.08 µM): 1.08
- relative viability (R406 + Alpelisib; first compound 0.253 µM): 0.691
- relative viability (R406 + Alpelisib; first compound 0.8 µM): 0.921
- relative viability (R406 + Alpelisib; first compound 2.53 µM): 0.434
- relative viability (R406 + Alpelisib; first compound 8 µM): 0.32
- relative viability (Daporinad + Palbociclib; first compound 0.0005 µM): 0.305
- relative viability (Daporinad + Palbociclib; first compound 0.001581 µM): 0.33
- relative viability (Daporinad + Palbociclib; first compound 0.005 µM): 0.346
- relative viability (Daporinad + Palbociclib; first compound 0.01581 µM): 0.332
- relative viability (Daporinad + AZD7762; first compound 0.0005 µM): 0.467
- relative viability (Daporinad + AZD7762; first compound 0.001581 µM): 0.511
- relative viability (Daporinad + AZD7762; first compound 0.005 µM): 0.522
- relative viability (Daporinad + AZD7762; first compound 0.01581 µM): 0.764

Cell Line: NCI-H1299
- relative viability (R406 + Alpelisib; first compound 0.08 µM): 1
- relative viability (R406 + Alpelisib; first compound 0.253 µM): 1.02
- relative viability (R406 + Alpelisib; first compound 0.8 µM): 1.11
- relative viability (R406 + Alpelisib; first compound 2.53 µM): 1.12
- relative viability (R406 + Alpelisib; first compound 8 µM): 1.09
- relative viability (Daporinad + Bortezomib; first compound 0.0005 µM): 1.02
- relative viability (Daporinad + Bortezomib; first compound 0.001581 µM): 1.02
- relative viability (Daporinad + Bortezomib; first compound 0.005 µM): 1.04
- relative viability (Daporinad + Bortezomib; first compound 0.01581 µM): 1.04

Cell Line: EBC-1
- relative viability (R406 + Alpelisib; first compound 0.08 µM): 0.826
- relative viability (R406 + Alpelisib; first compound 0.253 µM): 0.969
- relative viability (R406 + Alpelisib; first compound 0.8 µM): 1.03
- relative viability (R406 + Alpelisib; first compound 2.53 µM): 0.606
- relative viability (R406 + Alpelisib; first compound 8 µM): 0.386
- relative viability (Daporinad + Bortezomib; first compound 0.0005 µM): 0.546
- relative viability (Daporinad + Bortezomib; first compound 0.001581 µM): 0.506
- relative viability (Daporinad + Bortezomib; first compound 0.005 µM): 0.558
- relative viability (Daporinad + Bortezomib; first compound 0.01581 µM): 0.623

Cell Line: NCI-H2347
- relative viability (R406 + Alpelisib; first compound 0.08 µM): 0.984
- relative viability (R406 + Alpelisib; first compound 0.253 µM): 1.15
- relative viability (R406 + Alpelisib; first compound 0.8 µM): 1.12
- relative viability (R406 + Alpelisib; first compound 2.53 µM): 0.791
- relative viability (R406 + Alpelisib; first compound 8 µM): 0.856
- relative viability (Daporinad + Palbociclib; first compound 0.0005 µM): 0.447
- relative viability (Daporinad + Palbociclib; first compound 0.001581 µM): 0.447
- relative viability (Daporinad + Palbociclib; first compound 0.005 µM): 0.419
- relative viability (Daporinad + Palbociclib; first compound 0.01581 µM): 0.384
- relative viability (Daporinad + AZD7762; first compound 0.0005 µM): 0.785
- relative viability (Daporinad + AZD7762; first compound 0.001581 µM): 0.814
- relative viability (Daporinad + AZD7762; first compound 0.005 µM): 0.726
- relative viability (Daporinad + AZD7762; first compound 0.01581 µM): 0.547
- relative viability (Daporinad + Bortezomib; first compound 0.0005 µM): 1.15
- relative viability (Daporinad + Bortezomib; first compound 0.001581 µM): 1.03
- relative viability (Daporinad + Bortezomib; first compound 0.005 µM): 0.922
- relative viability (Daporinad + Bortezomib; first compound 0.01581 µM): 1.41

Cell Line: NCI-H1993
- relative viability (R406 + Alpelisib; first compound 0.08 µM): 0.692
- relative viability (R406 + Alpelisib; first compound 0.253 µM): 0.741
- relative viability (R406 + Alpelisib; first compound 0.8 µM): 0.772
- relative viability (R406 + Alpelisib; first compound 2.53 µM): 0.653
- relative viability (R406 + Alpelisib; first compound 8 µM): 0.599
- relative viability (Daporinad + Palbociclib; first compound 0.0005 µM): 0.583
- relative viability (Daporinad + Palbociclib; first compound 0.001581 µM): 0.563
- relative viability (Daporinad + Palbociclib; first compound 0.005 µM): 0.719
- relative viability (Daporinad + Palbociclib; first compound 0.01581 µM): 0.706
- relative viability (Daporinad + AZD7762; first compound 0.0005 µM): 0.645
- relative viability (Daporinad + AZD7762; first compound 0.001581 µM): 0.774
- relative viability (Daporinad + AZD7762; first compound 0.005 µM): 0.787
- relative viability (Daporinad + AZD7762; first compound 0.01581 µM): 0.962
- relative viability (Daporinad + Bortezomib; first compound 0.0005 µM): 0.919
- relative viability (Daporinad + Bortezomib; first compound 0.001581 µM): 1.21
- relative viability (Daporinad + Bortezomib; first compound 0.005 µM): 1.09
- relative viability (Daporinad + Bortezomib; first compound 0.01581 µM): 1.12

Cell Line: NCI-H358
- relative viability (R406 + Alpelisib; first compound 0.08 µM): 0.877
- relative viability (R406 + Alpelisib; first compound 0.253 µM): 0.908
- relative viability (R406 + Alpelisib; first compound 0.8 µM): 1
- relative viability (R406 + Alpelisib; first compound 2.53 µM): 0.373
- relative viability (R406 + Alpelisib; first compound 8 µM): 0.234
- relative viability (Daporinad + Palbociclib; first compound 0.0005 µM): 0.111
- relative viability (Daporinad + Palbociclib; first compound 0.001581 µM): 0.135
- relative viability (Daporinad + Palbociclib; first compound 0.005 µM): 0.154
- relative viability (Daporinad + Palbociclib; first compound 0.01581 µM): 0.153
- relative viability (Daporinad + AZD7762; first compound 0.0005 µM): 0.473
- relative viability (Daporinad + AZD7762; first compound 0.001581 µM): 0.584
- relative viability (Daporinad + AZD7762; first compound 0.005 µM): 0.506
- relative viability (Daporinad + AZD7762; first compound 0.01581 µM): 0.67

Cell Line: ChaGo-K-1
- relative viability (Daporinad + Palbociclib; first compound 0.0005 µM): 0.914
- relative viability (Daporinad + Palbociclib; first compound 0.001581 µM): 0.908
- relative viability (Daporinad + Palbociclib; first compound 0.005 µM): 0.786
- relative viability (Daporinad + Palbociclib; first compound 0.01581 µM): 0.327
- relative viability (Daporinad + AZD7762; first compound 0.0005 µM): 0.834
- relative viability (Daporinad + AZD7762; first compound 0.001581 µM): 0.903
- relative viability (Daporinad + AZD7762; first compound 0.005 µM): 0.755
- relative viability (Daporinad + AZD7762; first compound 0.01581 µM): 0.3
- relative viability (Daporinad + Bortezomib; first compound 0.0005 µM): 0.912
- relative viability (Daporinad + Bortezomib; first compound 0.001581 µM): 0.574
- relative viability (Daporinad + Bortezomib; first compound 0.005 µM): 0.859
- relative viability (Daporinad + Bortezomib; first compound 0.01581 µM): 0.562

Cell Line: NCI-H661
- relative viability (R406 + Alpelisib; first compound 0.08 µM): 0.299
- relative viability (R406 + Alpelisib; first compound 0.253 µM): 0.878
- relative viability (R406 + Alpelisib; first compound 0.8 µM): 0.877
- relative viability (R406 + Alpelisib; first compound 2.53 µM): 0.597
- relative viability (R406 + Alpelisib; first compound 8 µM): 0.274
- relative viability (Daporinad + Palbociclib; first compound 0.0005 µM): 0.389
- relative viability (Daporinad + Palbociclib; first compound 0.001581 µM): 0.459
- relative viability (Daporinad + Palbociclib; first compound 0.005 µM): 0.419
- relative viability (Daporinad + Palbociclib; first compound 0.01581 µM): 0.359
- relative viability (Daporinad + Bortezomib; first compound 0.0005 µM): 0.941
- relative viability (Daporinad + Bortezomib; first compound 0.001581 µM): 0.867
- relative viability (Daporinad + Bortezomib; first compound 0.005 µM): 0.659
- relative viability (Daporinad + Bortezomib; first compound 0.01581 µM): 0.477

Cell Line: COR-L23
- relative viability (R406 + Alpelisib; first compound 0.08 µM): 0.725
- relative viability (R406 + Alpelisib; first compound 0.253 µM): 0.947
- relative viability (R406 + Alpelisib; first compound 0.8 µM): 0.828
- relative viability (R406 + Alpelisib; first compound 2.53 µM): 0.553
- relative viability (R406 + Alpelisib; first compound 8 µM): 0.388
- relative viability (Daporinad + Palbociclib; first compound 0.0005 µM): 0.302
- relative viability (Daporinad + Palbociclib; first compound 0.001581 µM): 0.362
- relative viability (Daporinad + Palbociclib; first compound 0.005 µM): 0.278
- relative viability (Daporinad + Palbociclib; first compound 0.01581 µM): 0.191
- relative viability (Daporinad + Bortezomib; first compound 0.0005 µM): 1.01
- relative viability (Daporinad + Bortezomib; first compound 0.001581 µM): 0.973
- relative viability (Daporinad + Bortezomib; first compound 0.005 µM): 0.753
- relative viability (Daporinad + Bortezomib; first compound 0.01581 µM): 0.212

Cell Line: COR-L 105
- relative viability (R406 + Alpelisib; first compound 0.08 µM): 1.26
- relative viability (R406 + Alpelisib; first compound 0.253 µM): 1.01
- relative viability (R406 + Alpelisib; first compound 0.8 µM): 1.4
- relative viability (R406 + Alpelisib; first compound 2.53 µM): 0.757
- relative viability (R406 + Alpelisib; first compound 8 µM): 0.641
- relative viability (Daporinad + Palbociclib; first compound 0.0005 µM): 0.395
- relative viability (Daporinad + Palbociclib; first compound 0.001581 µM): 0.401
- relative viability (Daporinad + Palbociclib; first compound 0.005 µM): 0.37
- relative viability (Daporinad + Palbociclib; first compound 0.01581 µM): 0.44
- relative viability (Daporinad + Bortezomib; first compound 0.0005 µM): 0.827
- relative viability (Daporinad + Bortezomib; first compound 0.001581 µM): 0.815
- relative viability (Daporinad + Bortezomib; first compound 0.005 µM): 0.781
- relative viability (Daporinad + Bortezomib; first compound 0.01581 µM): 0.753

Cell Line: LK-2
- relative viability (R406 + Alpelisib; first compound 0.08 µM): 0.98
- relative viability (R406 + Alpelisib; first compound 0.253 µM): 1.05
- relative viability (R406 + Alpelisib; first compound 0.8 µM): 1.02
- relative viability (R406 + Alpelisib; first compound 2.53 µM): 0.803
- relative viability (R406 + Alpelisib; first compound 8 µM): 0.566
- relative viability (Daporinad + Palbociclib; first compound 0.0005 µM): 0.637
- relative viability (Daporinad + Palbociclib; first compound 0.001581 µM): 0.765
- relative viability (Daporinad + Palbociclib; first compound 0.005 µM): 0.279
- relative viability (Daporinad + Palbociclib; first compound 0.01581 µM): 0.214
- relative viability (Daporinad + AZD7762; first compound 0.0005 µM): 0.523
- relative viability (Daporinad + AZD7762; first compound 0.001581 µM): 0.36
- relative viability (Daporinad + AZD7762; first compound 0.005 µM): 0.199
- relative viability (Daporinad + AZD7762; first compound 0.01581 µM): 0.141
